Data on two substances can be found in patent US4581165A, “Anti-diabetic compounds” (Eli Lilly and Company, priority 1984, dated 1986).

The experiment deals with isolated rat adipocytes. The experiment is described as follows: Biological Activity in Isolated Rat Adipocytes (incorporation of 2-3H-glucose in total fat cell lipid). The format is cell-based. The following applies: 2-3H-glucose incorporation in total fat cell lipid, 37° for 1 hr, mean±SEM. The procedure: Adipocytes were prepared from epididymal fat pads by a modification (Huber, supra) of the collagenase digestion procedure of Rodbell, supra. Krebs-Ringer-HEPES (KRH) buffer, pH 7.4, containing 4% bovine serum albumin and 0.55 mM glucose was used in all isolation and incubation steps.
Biological activity was assessed according to the method of Moody, A. J., Stan, M. A., Stan, M., and Glieman, J., Horm. Metab. Res. 6, 12-16 (1974) by monitoring the incorporation of 2-^3 H-glucose in total fat cell lipid. […] Radioactivity was determined in a Searle Isocap 300 liquid scintillation counter at an efficiency of approximately 30%. Blanks were prepared in which the scintillation fluid was added to the vials prior to the addition of cells. The average counts obtained from these vials were subtracted from those observed in all other samples.
Competitive binding curves and biological activity dose-response curves were analyzed using the PREFIT and ALLFIT programs [DeLean, A., Munson, P. J., and Rodbard, D., Am. J. Physiol. 235, E97-E102 (1978)] based on a four-parameter logistic model. These analyses indicated the concentration of insulin or proinsulin necessary to produce a half-maximal response, as well as the maximal and minimal values. All values are presented as the mean±SEM.

With “Human Insulin: human insulin, reference in the binding and activity assays”, the ED50 is listed as 5.32 ± 0.7 × 10^-11 M. Then “Human Proinsulin: human proinsulin, starting material and reference; relative potency set to 1”, with 1.24 ± 0.2 × 10^-8 M.
